In one experiment the target is TRKA kinase (Homo sapiens (Human), UniProt P04629). The experiment in a line: Assay of small molecular compounds for inhibiting the activity of TRKA kinase (LANCE TR-FRET). In kind it is biochemical. The method, boiled down:
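LANCE TR-FRET with ULight-TK peptide; compounds pre-incubated 5 min with TRKA (2× solution 2 nM), then substrate/ATP added (4× mix: 400 nM peptide, 40 μM ATP). Reaction 60 min at room temperature in dark, 1% DMSO final; stopped, detection developed 60 min, signal read.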
For orientation: TR-FRET usually uses a lanthanide donor and a delayed reading to cut background.

The next experiment deals with Ba/F3-AXL cells. The experiment in a line: Assay for inhibiting the proliferation of Ba/F3-AXL cells (CCK-8). In kind it is cell-based. The settings on record: 72 hours of incubation, medium with 100 ng/mL hGas6, CCK-8. On the procedure: The values were then imported into Graphpad Prism 5 software for curve fitting, and IC50 was calculated.
A further experiment concerns the target VEGFR-2 kinase (Homo sapiens (Human), UniProt P35968). The experiment in a line: Assay of small molecular compounds for inhibiting the activity of VEGFR-2 kinase (LANCE TR-FRET). The class given is biochemical. The following applies: read-out: VEGFR2 IC50. In short, it runs like this: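 LANCE TR-FRET with human VEGFR-2 (2× stock 0.5 nM) preincubated 30 min with compound (final 2500 to 0.042 nM, 11-point 3-fold), then ULight-JAK-1 (Tyr1023) peptide/ATP added (4× stocks 200 nM/40 μM). Reaction 60 min room temperature, 4% DMSO; IC50 from inhibition-rate curve.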

Chain of VEGFR-2 kinase (P35968 20-1356): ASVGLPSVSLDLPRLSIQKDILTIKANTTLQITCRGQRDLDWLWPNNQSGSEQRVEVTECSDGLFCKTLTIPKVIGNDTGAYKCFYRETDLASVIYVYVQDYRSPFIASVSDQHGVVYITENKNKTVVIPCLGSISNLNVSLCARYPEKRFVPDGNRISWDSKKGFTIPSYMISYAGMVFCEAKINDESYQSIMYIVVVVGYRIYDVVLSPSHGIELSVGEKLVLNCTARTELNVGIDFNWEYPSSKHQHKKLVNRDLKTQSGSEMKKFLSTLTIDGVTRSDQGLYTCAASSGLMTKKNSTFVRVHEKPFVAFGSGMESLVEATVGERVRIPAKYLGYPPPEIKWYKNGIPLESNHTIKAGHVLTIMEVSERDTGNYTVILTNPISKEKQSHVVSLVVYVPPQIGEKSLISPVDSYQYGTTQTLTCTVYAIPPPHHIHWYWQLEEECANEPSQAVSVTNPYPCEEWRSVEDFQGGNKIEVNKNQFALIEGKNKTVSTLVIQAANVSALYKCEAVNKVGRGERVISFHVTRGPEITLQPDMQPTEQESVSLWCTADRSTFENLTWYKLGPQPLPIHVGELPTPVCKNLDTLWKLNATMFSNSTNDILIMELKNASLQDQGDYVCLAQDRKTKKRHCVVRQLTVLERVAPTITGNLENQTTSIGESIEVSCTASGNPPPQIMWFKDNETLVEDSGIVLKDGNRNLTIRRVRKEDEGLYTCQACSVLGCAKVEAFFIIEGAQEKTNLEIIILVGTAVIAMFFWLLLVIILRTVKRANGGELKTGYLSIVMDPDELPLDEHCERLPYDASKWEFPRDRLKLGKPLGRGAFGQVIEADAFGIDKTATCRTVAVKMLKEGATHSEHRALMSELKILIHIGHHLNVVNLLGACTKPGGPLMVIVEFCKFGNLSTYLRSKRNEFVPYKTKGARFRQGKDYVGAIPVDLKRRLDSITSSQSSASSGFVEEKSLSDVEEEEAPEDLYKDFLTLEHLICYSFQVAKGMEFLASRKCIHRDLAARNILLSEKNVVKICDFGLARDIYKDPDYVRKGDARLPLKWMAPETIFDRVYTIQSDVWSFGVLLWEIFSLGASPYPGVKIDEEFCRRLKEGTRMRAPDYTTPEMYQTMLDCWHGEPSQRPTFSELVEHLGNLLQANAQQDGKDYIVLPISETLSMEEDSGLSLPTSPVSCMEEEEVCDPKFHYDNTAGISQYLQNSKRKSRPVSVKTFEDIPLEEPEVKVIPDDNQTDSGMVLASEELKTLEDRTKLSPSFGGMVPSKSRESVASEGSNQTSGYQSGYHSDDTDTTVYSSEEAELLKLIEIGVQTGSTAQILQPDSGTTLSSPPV
Chain of TRKA kinase (P04629 33-796): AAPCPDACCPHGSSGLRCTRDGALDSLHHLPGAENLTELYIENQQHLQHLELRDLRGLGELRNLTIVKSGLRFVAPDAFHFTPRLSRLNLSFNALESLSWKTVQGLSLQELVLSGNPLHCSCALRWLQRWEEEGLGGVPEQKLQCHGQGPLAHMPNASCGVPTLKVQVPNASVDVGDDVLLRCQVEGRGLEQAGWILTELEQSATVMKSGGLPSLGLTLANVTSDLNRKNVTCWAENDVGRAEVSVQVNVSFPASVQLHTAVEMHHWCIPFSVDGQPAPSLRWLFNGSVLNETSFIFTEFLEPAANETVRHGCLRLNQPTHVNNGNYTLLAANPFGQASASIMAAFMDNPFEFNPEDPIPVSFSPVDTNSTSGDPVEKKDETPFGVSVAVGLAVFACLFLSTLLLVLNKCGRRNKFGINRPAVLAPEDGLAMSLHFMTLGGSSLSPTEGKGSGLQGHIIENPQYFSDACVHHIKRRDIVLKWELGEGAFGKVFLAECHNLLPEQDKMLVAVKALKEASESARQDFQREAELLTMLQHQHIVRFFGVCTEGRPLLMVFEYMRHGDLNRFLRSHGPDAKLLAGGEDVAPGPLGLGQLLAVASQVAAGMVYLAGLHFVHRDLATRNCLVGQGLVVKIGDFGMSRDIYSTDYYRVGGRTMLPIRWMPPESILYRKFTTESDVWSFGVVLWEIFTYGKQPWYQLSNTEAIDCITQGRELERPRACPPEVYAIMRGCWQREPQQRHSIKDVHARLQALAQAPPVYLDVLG

A word on the IC50: it is the concentration at which inhibition is half-maximal. As to `C=CCn1cc(C(=O)Nc2ccc(Oc3ccnc4cc(OC)c5c(c34)OCCO5)c(F)c2)c(=O)n(-c2ccc(F)cc2)c1=O` [Example 100, N-(3-fluoro-4-((5-methoxy-2,3-dihydro-[1,4]dioxino[2,3-f]quinolin-10-yl)oxy)phenyl)-3-(4-fluorophenyl)-1-allyl-2,4-dioxo-1,2,3,4-tetrahydropyrimidine-5-carboxamide], the IC50 at TRKA kinase is 0.05 to 0.5 µM; in the experiment on Ba/F3-AXL cells it was below 0.05 µM; at VEGFR-2 kinase it was 0.5 to 5 µM.

As to `CCn1cc(C(=O)Nc2cc(F)c(Oc3ccnc4cc(OCCOC)c5c(c34)OCCO5)cc2C)c(=O)n(-c2ccc(F)cc2)c1=O` [Example 180, N-(5-fluoro-4-((5-(2-methoxyethoxy)-2,3-dihydro-[1,4]dioxino[2,3-f]quinolin-10-yl)oxy)-2-methylphenyl)-3-(4-fluorophenyl)-1-ethyl-2,4-dioxo-1,2,3,4-tetrahydropyrimidine-5-carboxamide], the IC50 against TRKA kinase is below 0.05 µM; at VEGFR-2 kinase, 0.5 to 5 µM.

On to `Cn1cc(C(=O)Nc2ccc(Oc3ccnc4cc(OCCCN5CCCCC5)c5c(c34)OCCO5)cc2Cl)c(=O)n(-c2ccc(F)cc2)c1=O` [Example 137, N-(2-chloro-4-((5-((3-piperidin-1-yl)propoxy)-2,3-dihydro-[1,4]dioxino[2,3-f]quinolin-10-yl)oxy)phenyl)-3-(4-fluorophenyl)-1-methyl-2,4-dioxo-1,2,3,4-tetrahydropyrimidine-5-carboxamide], for which the half-maximal inhibitory concentration (IC50) at TRKA kinase is below 0.05 µM; on VEGFR-2 kinase it was 0.05 to 0.5 µM.

Turning to `CC(C)(O)COc1cc2nccc(Oc3ccc(NC(=O)c4cccn(-c5ccc(F)cc5)c4=O)c(Cl)c3)c2c2c1OCCO2` [Example 139, N-(2-chloro-4-((5-(2-hydroxy-2-methylpropoxy)-2,3-dihydro-[1,4]dioxino[2,3-f]quinolin-10-yl)oxy)phenyl)-1-(4-fluorophenyl)-2-oxo-1,2-dihydropyridine-3-carboxamide], the IC50 at TRKA kinase is below 0.05 µM; on VEGFR-2 kinase it was 0.05 to 0.5 µM.

Regarding `CCn1cc(C(=O)Nc2ccc(Oc3ccnc4cc(OCCOC)c5c(c34)OCCO5)cc2)c(=O)n(-c2ccc(F)cc2)c1=O` [Example 148, N-(4-((5-(2-methoxyethoxy)-2,3-dihydro-[1,4]dioxino[2,3-f]quinolin-10-yl)oxy)phenyl)-3-(4-fluorophenyl)-1-ethyl-2,4-dioxo-1,2,3,4-tetrahydropyrimidine-5-carboxamide], the IC50 on TRKA kinase is below 0.05 µM; on VEGFR-2 kinase, 0.5 to 5 µM.

In the case of `CC(C)n1cc(C(=O)Nc2ccc(Oc3ccnc4cc(OCCCN5CCOCC5)c5c(c34)OCCO5)c(F)c2)c(=O)n(-c2ccc(F)cc2)c1=O` [Example 16, N-(3-fluoro-4-((5-(3-morpholinopropoxy)-2,3-dihydro-[1,4]dioxino[2,3-f]quinolin-10-yl)oxy)phenyl)-3-(4-fluorophenyl)-1-isopropyl-2,4-dioxo-1,2,3,4-tetrahydropyrimidine-5-carboxamide], the IC50 against TRKA kinase and in the experiment on Ba/F3-AXL cells was below 0.05 µM throughout.

As for `COc1cc2nccc(Oc3cc(C)c(NC(=O)c4cn(C)c(=O)n(-c5ccc(F)cc5)c4=O)cc3F)c2c2c1OCCO2` [Example 177, N-(5-fluoro-4-((5-methoxy-2,3-dihydro-[1,4]dioxino[2,3-f]quinolin-10-yl)oxy)-2-methylphenyl)-3-(4-fluorophenyl)-1-methyl-2,4-dioxo-1,2,3,4-tetrahydropyrimidine-5-carboxamide], the IC50 against TRKA kinase was below 0.05 µM; on VEGFR-2 kinase it was 0.5 to 5 µM.

As to `COCCOc1cc2nccc(Oc3cc(C)c(NC(=O)c4cn(C)c(=O)n(-c5ccc(F)cc5)c4=O)cc3F)c2c2c1OCCO2` [Example 179, N-(5-fluoro-4-((5-(2-methoxyethoxy)-2,3-dihydro-[1,4]dioxino[2,3-f]quinolin-10-yl)oxy)-2-methylphenyl)-3-(4-fluorophenyl)-1-methyl-2,4-dioxo-1,2,3,4-tetrahydropyrimidine-5-carboxamide], the IC50 at TRKA kinase was below 0.05 µM; on VEGFR-2 kinase, 0.5 to 5 µM.

With `O=C(Nc1ccc(Oc2ccnc3ccc4c(c23)OCCO4)c(F)c1)c1cccn(-c2ccc(F)cc2)c1=O` [Example 169, N-(4-((2,3-dihydro-[1,4]dioxino[2,3-f]quinolin-10-yl)oxy)-3-fluorophenyl)-1-(4-fluorophenyl)-2-oxo-1,2-dihydropyridine-3-carboxamide], the IC50 is below 0.05 µM against TRKA kinase and 0.05 to 0.5 µM on VEGFR-2 kinase.

As for `Cn1cc(C(=O)Nc2ccc(Oc3ccnc4cc(OCC(C)(C)O)c5c(c34)OCCO5)cc2Cl)c(=O)n(-c2ccc(F)cc2)c1=O` [Example 141, N-(2-chloro-4-((5-(2-hydroxy-2-methylpropoxy)-2,3-dihydro-[1,4]dioxino[2,3-f]quinolin-10-yl)oxy)phenyl)-3-(4-fluorophenyl)-1-methyl-2,4-dioxo-1,2,3,4-tetrahydropyrimidine-5-carboxamide], the half-maximal inhibitory concentration (IC50) on TRKA kinase and with Ba/F3-AXL cells was below 0.05 µM each time.

Regarding `Cn1cc(C(=O)Nc2ccc(Oc3ccnc4ccc5c(c34)OCCO5)cc2F)c(=O)n(-c2ccc(F)cc2)c1=O` [Example 162, N-(4-((2,3-dihydro-[1,4]dioxino[2,3-f]quinolin-10-yl)oxy)-2-fluorophenyl)-3-(4-fluorophenyl)-1-methyl-2,4-dioxo-1,2,3,4-tetrahydropyrimidine-5-carboxamide], the IC50 against TRKA kinase was below 0.05 µM; on VEGFR-2 kinase, 0.5 to 5 µM.

Regarding `COc1cc2nccc(Oc3ccc(NC(=O)c4cn(C)c(=O)n(-c5ccc(F)cc5)c4=O)cc3)c2c2c1OCCO2` [Example 145, N-(4-((5-methoxy-2,3-dihydro-[1,4]dioxino[2,3-f]quinolin-10-yl)oxy)phenyl)-3-(4-fluorophenyl)-1-methyl-2,4-dioxo-1,2,3,4-tetrahydropyrimidine-5-carboxamide], the IC50 against TRKA kinase was below 0.05 µM; on VEGFR-2 kinase, 0.5 to 5 µM.

Take `COc1ccn(-c2ccc(F)cc2)c(=O)c1C(=O)Nc1ccc(Oc2ccnc3cc(OCCCN4CCCCC4)c4c(c23)OCCO4)cc1Cl` [Example 136, N-(2-chloro-4-((5-((3-piperidin-1-yl)propoxy)-2,3-dihydro-[1,4]dioxino[2,3-f]quinolin-10-yl)oxy)phenyl)-1-(4-fluorophenyl)-4-methoxy-2-oxo-1,2-dihydropyridine-3-carboxamide]: the values for the concentration for half-maximal inhibition (IC50) at TRKA kinase and at VEGFR-2 kinase were below 0.05 µM and 0.05 to 0.5 µM, respectively.

As for `O=C(Nc1ccc(Oc2ccnc3cc(OCCCN4CCCCC4)c4c(c23)OCCO4)cc1Cl)c1cccn(-c2ccc(F)cc2)c1=O` [Example 135, N-(2-chloro-4-((5-((3-piperidin-1-yl)propoxy)-2,3-dihydro-[1,4]dioxino[2,3-f]quinolin-10-yl)oxy)phenyl)-1-(4-fluorophenyl)-2-oxo-1,2-dihydropyridine-3-carboxamide], the IC50 against TRKA kinase was below 0.05 µM; at VEGFR-2 kinase, at most 0.05 µM.

With `O=C(Nc1ccc(Oc2ccnc3cc(OCCCN4CCOCC4)c4c(c23)OCCO4)cc1Cl)c1cccn(-c2ccc(F)cc2)c1=O` [Example 143, N-(2-chloro-4-((5-(3-morpholinopropoxy)-2,3-dihydro-[1,4]dioxino[2,3-f]quinolin-10-yl)oxy)phenyl)-1-(4-fluorophenyl)-2-oxo-1,2-dihydropyridine-3-carboxamide], the results for the IC50 at TRKA kinase and on VEGFR-2 kinase were below 0.05 µM and at most 0.05 µM, respectively.

For `COc1ccn(-c2ccc(F)cc2)c(=O)c1C(=O)Nc1ccc(Oc2ccnc3ccc4c(c23)OCCO4)cc1F` [Example 172, N-(4-((2,3-dihydro-[1,4]dioxino[2,3-f]quinolin-10-yl)oxy)-2-fluorophenyl)-1-(4-fluorophenyl)-4-methoxy-2-oxo-1,2-dihydropyridine-3-carboxamide], the IC50 against TRKA kinase is below 0.05 µM; at VEGFR-2 kinase, above 5 µM.

As to `CCOc1cc2nccc(Oc3ccc(NC(=O)c4cn(C)c(=O)n(-c5ccc(F)cc5)c4=O)c(Cl)c3)c2c2c1OCCO2` [Example 129, N-(2-chloro-4-((5-ethoxy-2,3-dihydro-[1,4]dioxino[2,3-f]quinolin-10-yl)oxy)phenyl)-3-(4-fluorophenyl)-1-methyl-2,4-dioxo-1,2,3,4-tetrahydropyrimidine-5-carboxamide], the IC50 was below 0.05 µM against TRKA kinase and 0.5 to 5 µM on VEGFR-2 kinase.

As for `Cn1cc(C(=O)Nc2ccc(Oc3ccnc4cc(OCC(C)(C)O)c5c(c34)OCCO5)cc2)c(=O)n(-c2ccc(F)cc2)c1=O` [Example 149, N-(4-((5-(2-hydroxy-2-methylpropoxy)-2,3-dihydro-[1,4]dioxino[2,3-f]quinolin-10-yl)oxy)phenyl)-3-(4-fluorophenyl)-1-methyl-2,4-dioxo-1,2,3,4-tetrahydropyrimidine-5-carboxamide], the values for the IC50 against TRKA kinase and at VEGFR-2 kinase were below 0.05 µM and 0.5 to 5 µM, respectively.

In the case of `COc1ccn(-c2ccc(F)cc2)c(=O)c1C(=O)Nc1ccc(Oc2ccnc3cc(OCC(C)(C)O)c4c(c23)OCCO4)cc1Cl` [Example 140, N-(2-chloro-4-((5-(2-hydroxy-2-methylpropoxy)-2,3-dihydro-[1,4]dioxino[2,3-f]quinolin-10-yl)oxy)phenyl)-1-(4-fluorophenyl)-4-methoxy-2-oxo-1,2-dihydropyridine-3-carboxamide], the IC50 at TRKA kinase is below 0.05 µM; on VEGFR-2 kinase, 0.5 to 5 µM.

On to `COc1cc2nccc(Oc3ccc(NC(=O)c4cn(C)c(=O)n(-c5ccc(F)cc5)c4=O)c(F)c3)c2c2c1OCCO2` [Example 153, N-(2-fluoro-4-((5-methoxy-2,3-dihydro-[1,4]dioxino[2,3-f]quinolin-10-yl)oxy)phenyl)-3-(4-fluorophenyl)-1-methyl-2,4-dioxo-1,2,3,4-tetrahydropyrimidine-5-carboxamide], for which the values for the IC50 at TRKA kinase and at VEGFR-2 kinase were below 0.05 µM and 0.5 to 5 µM, respectively.

The values are drawn from patent US12202835B2, “Substituted aromatic ring-linked dioxinoquinazolines and dioxinoquinolines as kinase inhibitors” (BEIJING SCITECH-MQ PHARMACEUTICALS LIMITED, priority 2018, dated 2025).
